Source: patent publication US7572765B2, “Conformationally constrained parathyroid hormone (PTH) analogs” (The General Hospital Corporation, priority 2001, dated 2009)
Square brackets hold non-standard residues; d marks the D form. Ends that are not written are not given here. Peptide text beside a SMILES is read from it. hArg = N=C(N)NCCCC[C@H](N)C(=O)O; Nle = CCCC[C@H](N)C(=O)O; Aib = CC(C)(N)C(=O)O

Columns and labels:
[1] = target: T1, human P1R (Homo sapiens, UniProt Q03431); assay: cAMP stimulation in HKRK-B28 cells; type: cell-based; settings: for cAMP EMax(obs.): basal 4.0 ± 0.1 pmole/well not subtracted
T1 construct: expressed in transfected cells; host or cells: HKRK-B28 (porcine kidney LLC-PK1, stably transfected)
T1 sequence (Q03431 27-593): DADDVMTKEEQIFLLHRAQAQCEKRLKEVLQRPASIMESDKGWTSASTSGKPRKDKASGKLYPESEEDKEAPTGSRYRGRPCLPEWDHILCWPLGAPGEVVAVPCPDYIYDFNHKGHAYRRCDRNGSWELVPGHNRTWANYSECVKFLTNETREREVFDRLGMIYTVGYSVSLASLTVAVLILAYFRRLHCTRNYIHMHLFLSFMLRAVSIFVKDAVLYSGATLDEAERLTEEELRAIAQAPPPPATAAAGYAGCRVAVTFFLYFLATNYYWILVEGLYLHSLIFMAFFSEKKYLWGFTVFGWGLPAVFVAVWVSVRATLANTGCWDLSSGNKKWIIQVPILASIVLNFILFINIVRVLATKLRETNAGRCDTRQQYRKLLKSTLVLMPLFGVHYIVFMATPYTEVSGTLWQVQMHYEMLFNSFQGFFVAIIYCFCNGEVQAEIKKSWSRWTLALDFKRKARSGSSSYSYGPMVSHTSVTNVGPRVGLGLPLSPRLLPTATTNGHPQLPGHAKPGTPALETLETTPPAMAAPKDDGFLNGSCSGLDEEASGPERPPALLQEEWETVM
Description: (§1) Cell Culture. The cell line HKRK-B28 (Takasu, H., et al., J. Bone Miner. Res. 14:11-20 (1999)) was derived from the porcine kidney cell line, LLC-PK1 by stable transfection with plasmid DNA encoding the human P1R and expresses ˜280,000 receptors per cell. These cells, as well as COS-7 cells and SaOS-2-B10 cells, were cultured at […] in T-75 flasks ([…]) in Dulbecco's modified Eagle's medium (DMEM) supplemented with fetal bovine serum (10%), penicillin G (20 units/ml), streptomycin sulfate (20 μg/ml) and amphotericin B (0.05 μg/ml) in a humidified atmosphere containing 5% CO2. Stock solutions of EGTA/trypsin and antibiotics were from GIBCO; fetal bovine serum was from Hyclone Laboratories (Logan, Utah). COS-7 cells sub-cultured in 24-well plates were transfected with plasmid DNA (200 ng per well) encoding the wild-type human P1R or truncated human P1R deleted for residues (24-181) (Shimizu, M., et al., J. Biol. Chem. 275:21836-21843 (2000)) that was purified by cesium chloride/ethidium bromide density gradient centrifugation, and FuGENE 6 transfection reagent (Roche Indianapolis Ind.) according to the manufacturer's recommended procedure. All cells, in 24-well plates, were treated with fresh media and shifted to 33° C. for 12 to 24 h prior to assay.
cAMP Stimulation. Stimulation of cells with peptide analogs was performed in 24-well plates. Cells were rinsed with 0.5 mL of binding buffer (50 mM Tris-HCI, […], 5 mM KCl, 2 mM CaCl2, 5% heat-inactivated horse serum, 0.5% fetal bovine serum, adjusted to pH 7.5 with HCl) and treated with 200 μL of cAMP assay buffer (Delbecco's modified Eagle's medium containing 2 mM 3-isobutyl-1-methylxanthine, 1 mg/mL bovine serum albumin, 35 mM Hepes-NaOH, pH 7.4) and 100 μL of binding buffer containing varying amounts of peptide analog (final volume=300 μL). The medium was removed after incubation for 30 to 60 minutes at room temperature, and the cells were frozen on dry ice, lysed with 0.5 mL 50 mM HCl, and refrozen ([…]). The cAMP content of the diluted lysate was determined by radioimmunoassay. The EC50 response values were calculated using nonlinear regression (see below).
(§2) Data Calculation. Calculations were performed using Microsoft® Excel. Nonlinear regression analyses of binding and cAMP dose-response data were performed using the four-parameter equation: yp=Min+[(Max−Min)/(1+(IC50/x)^slope)]. The Excel Solver function was utilized for parameter optimization, as described previously (Carter, P. H., et al., Endocrinology 140: 4972-4981 (1999); Bowen, W. P., and Jerman, J. C., Trends in Pharmacol. Sci. 16: 413-417 (1995)). Differences between paired data sets were statistically evaluated using a one-tailed Student's t-test, assuming unequal variances for the two sets.

[2] = target: T1, human P1R; assay: Competition binding in HKRK-B28 cells; settings: for Binding IC50: HKRK-B28 cells, tracer 125I-[M]PTH(1-21)amide, 4 h at 4° C., N.B. = no binding detected at 10 μm peptide
Description: as §1
Competition Binding. Binding reactions were performed with HKRK-B28 cells or in COS-7 cells in 24-well plates. The cells were rinsed with 0.5 mL of binding buffer, and then treated successively with 100 μL binding buffer, 100 μL of binding buffer containing various amounts of unlabeled competitor ligand, and 100 μL of binding buffer containing ca. 100,000 cpm of ^125I-[M]PTH(1-21) or ^125I-[Aib^1,3,M]PTH(1-21)} (ca. 26 fmol; final volume=300 μL). Incubations were 4 to 6 h at 4° C., at which time near equilibrium conditions were attained. Cells were then placed on ice, the binding medium was removed, and the monolayer was rinsed three times with 0.5 mL of cold binding buffer. The cells were subsequently lysed with 0.5 mL […] and counted for radioactivity. For each tracer and in each experiment, the non-specific binding was determined as the radioactivity that bound in the presence of the same unlabeled peptide at a concentration of 1 μM, and was ˜1% of total radioactivity added for each tracer. The maximum specific binding (B0) was the total radioactivity bound in the absence of competing ligand, corrected for nonspecific binding, and for each tracer, ranged from 8% to 20% of the total radioactivity added. Nonlinear regression was used to calculate binding IC50 values (see below). Scatchard transformations of homologous competition binding data derived from studies with 26 fmol of ^125I-[Aib^1,3,M]PTH(1-21) were employed for estimations of apparent equilibrium dissociation constant (kDapps) and total number of ligand binding sites (Bmax), assuming a single class of binding sites and equal affinities of the iodinated and non iodinated ligand.
as §2
The P1R-binding properties of these analogs were assayed in competition studies performed in […]. In previous studies, PTH(1-14) binding could not be detected using ^125I-PTH(1-34) and related N-terminally intact and relatively unmodified radioligands (Luck, M. D., et al., Molecular Endocrinology 13:670-680 (1999)). […]

[3] = Circular dichroism spectroscopy (helical content); type: physicochemical
Description: Circular Dichroism. Circular Dichroism spectra were recorded on a Jasco model 710 spectropolarimeter; peptides were analyzed at a concentration of20 μM in 50 mM sodium phosphate buffer pH 7.4, or the same buffer containing 2,2,2-trifluoroethanol at 20% (v/v). Spectroscopic scans were preformed at 20° C. and at wavelengths between […], with data recored at each 1 nM interval. The spectral bandwidth was 1.5 nM and 8 scans were accumulated and averaged for each sample. At each wavelength, the mean residue elipticity [θ×100/l×C×n); where θ is the raw elipticity value (in dimensions of millidegree), l is the sample path length, C=is the molar peptide concentration, and n is the number of residues in the peptide (Bowen, W. P., and Jerman, J. C., Trends in Pharmacol. Sci. 16: 413-417 (1995)). The helical content of each peptide was estimated by dividing [θ] observed at 222 nM for that peptide by −28,100, which is the reported [θ]222obs for a model helical decapeptide (Bowen, W. P., and Jerman, J. C., Trends in Pharmacol. Sci. 16: 413-417 (1995)).
Circular dichroism (CD) spectroscopy was used to analyze the potential effects that the Aib substitutions had on peptide secondary structure when the peptides were free in solution. Samples were analyzed in both aqueous phosphate buffer and in phosphate buffer containing 2,2,2-trifloroethanol, an organic solvent which promotes helical structure in oligopeptides, including PTH peptide fragments (Pellegrini, M., et al., J. Biol. Chem. 273:10420-10427 (1998); Gronwald, W., et al., Biol. Chem. Hoppe Seyler 377:175-186 (1996); Barden, J. A., and Kemp, B. E., Biochemistry 32:7126-7132 (1993)). In phosphate buffer, the helical content of each peptide, estimated from the elipticity observed at 222 nM, was small (≦16%); however, [Aib^1,3,M]PTH(1-14) contained nearly twice as much helix as did [M]PTH(1-14) (16% and 8.1% respectively), as did [Aib^1,3,M]PTH(1-1l), as compared to […] (13% and 7.5% respectively, Table 4). […] The higher helical contents of these two peptides were evident not only from the negative elipticities at […] and 222 nM, but also from the positive elipticities at 192 nM (FIG. 6).

Row | Molecule | cAMP EMax(obs.) [1] [pmole/well] | Binding IC50 [2] | also measured
1 | CSCC[C@H](NC(=O)[C@H](CC(C)C)NC(=O)[C@H](CCC(N)=O)NC(=O)C(C)(C)NC(=O)[C@H](CCC(=O)O)NC(=O)[C@H](C)NC(=O)[C@@H](NC(=O)[C@H](C)N)C(C)C)C(=O)N[C@@H](Cc1c[nH]cn1)C(=O)N[C@@H](CCC(N)=O)C(=O)N[C@@H](CCCCNC(=N)N)C(=O)N[C@@H](C)C(=O)N[C@@H](CCCCN)C(=O)N[C@@H](Cc1c[nH]c2ccccc12)C(N)=O [Aib-5] (H-AVAE[Aib]QLMHQ[hArg]AKW-NH2) | 169 ± 18 | N.B. | EC50 [1]: 66 µM
2 | CC[C@H](C)[C@H](NC(=O)[C@H](CCC(=O)O)NC(=O)[C@H](C)NC(=O)[C@@H](NC(=O)[C@H](C)N)C(C)C)C(=O)N[C@@H](CCC(N)=O)C(=O)N[C@@H](CC(C)C)C(=O)NC(C)(C)C(=O)N[C@@H](Cc1c[nH]cn1)C(=O)N[C@@H](CCC(N)=O)C(=O)N[C@@H](CCCCNC(=N)N)C(=O)N[C@@H](C)C(=O)N[C@@H](CCCCN)C(=O)N[C@@H](Cc1c[nH]c2ccccc12)C(N)=O [Aib-8] (H-AVAEIQL[Aib]HQ[hArg]AKW-NH2) | 34 ± 7 | N.B. | –
3 | CC[C@H](C)[C@H](NC(=O)[C@H](CCC(=O)O)NC(=O)[C@H](C)NC(=O)[C@@H](NC(=O)[C@H](C)N)C(C)C)C(=O)N[C@@H](CCC(N)=O)C(=O)N[C@@H](CC(C)C)C(=O)N[C@@H](CCSC)C(=O)NC(C)(C)C(=O)N[C@@H](CCC(N)=O)C(=O)N[C@@H](CCCCNC(=N)N)C(=O)N[C@@H](C)C(=O)N[C@@H](CCCCN)C(=O)N[C@@H](Cc1c[nH]c2ccccc12)C(N)=O [Aib-9] (H-AVAEIQLM[Aib]Q[hArg]AKW-NH2) | 51 ± 8 | N.B. | –
4 | CC[C@H](C)[C@H](NC(=O)[C@H](CCC(=O)O)NC(=O)[C@H](C)NC(=O)[C@@H](NC(=O)[C@H](C)N)C(C)C)C(=O)N[C@@H](CCC(N)=O)C(=O)N[C@@H](CC(C)C)C(=O)N[C@@H](CCSC)C(=O)N[C@@H](Cc1c[nH]cn1)C(=O)N[C@@H](CCC(N)=O)C(=O)NC(C)(C)C(=O)N[C@@H](C)C(=O)N[C@@H](CCCCN)C(=O)N[C@@H](Cc1c[nH]c2ccccc12)C(N)=O [Aib-11] (H-AVAEIQLMHQ[Aib]AKW-NH2) | 96 ± 18 | N.B. | EC50 [1]: 67 µM
5 | CC[C@H](C)[C@H](NC(=O)[C@H](CCC(=O)O)NC(=O)[C@H](C)NC(=O)[C@@H](NC(=O)[C@H](C)N)C(C)C)C(=O)N[C@@H](CCC(N)=O)C(=O)N[C@@H](CC(C)C)C(=O)N[C@@H](CCSC)C(=O)N[C@@H](Cc1c[nH]cn1)C(=O)N[C@@H](CCC(N)=O)C(=O)N[C@@H](CCCCNC(=N)N)C(=O)N[C@@H](C)C(=O)N[C@@H](CCCCN)C(=O)NC(C)(C)C(N)=O [Aib-14] (H-AVAEIQLMHQ[hArg]AK[Aib]-NH2) | 273 ± 6 | – | –
6 | PTH(1-11): unmodified N-terminal PTH(1-11) peptide (SVSEIQLMHNL; Parathyroid hormone; UniProt P01270 32-42, looked up, fragment) | – | – | [0]222obs × 10^−3, Phos. ([3]; 20 μM peptide, 50 mM phosphate buffer pH 7.4): −1.8; [0]222obs × 10^−3, Phos + TFE ([3]; 20 μM peptide, 50 mM phosphate buffer with trifluoroethanol (20%)): −8.4; helical residues (%), Phos + TFE ([3]; 50 mM phosphate buffer with trifluoroethanol (20%), from elipticity at 222 nM): 30%; helical residues (%), Phos. ([3]; 50 mM phosphate buffer, from elipticity at 222 nM): 6.5%
7 | ^125I-[Ala^3,12Nle^8Gln^10,Har^11,Trp^14,Tyr^15]PTH(1-15)amide (AVAEIQL[Nle]HQ[hArg]AKWY-NH2; also: 125I-labeled, place not given here) [reference compound] | – | – | binding of radiolabeled peptide to HKRK-B28 cells (in words) ([2]; direct binding of the radioligand): did not bind detectably
